Several values for one entry are separate records, joined by “and”; a condition that tells them apart may be missing. Equal values may be shown once. Read-outs that look alike come from different tables or passages of the source.

We go through 15 compounds from patent US20180008612A1 (priority 2016, published 2018).

Series [1] can be described thus: Antioxidant effect on galantamine stability under normal and stress conditions. It is filed as physicochemical.
Series [2] can be described thus: Skin permeation, Franz diffusion cells. It is filed as in vitro ADME, human. The following applies: for Enhancement Ratio: human. As to the method:
The flux can be measured with a standard procedure using Franz diffusion cells, and the experiments were done on human cadaver skin. With Franz cells, in each Franz diffusion cell a disc (diameter of 25 mm) of human cadaver skin is placed on the receptor compartment. A transdermal delivery system is cut the same size as the skin and placed over the diffusion area in the center of the receptor. The donor compartment is then added and clamped to the assembly. At time 0, receptor medium solution 14 mL is added into the receptor compartment and the cell maintained at 32° C. Samples of the receptor compartment are taken periodically to determine the skin flux and analyzed by HPLC.
Skin permeation of various formulations were tested. The results are provided in FIGS. 1, and 2 and Tables 5 and 6. Higher the amount of the galantamine in the adhesives will increase the penetration, but when over the saturation point, the transdermal system will crystalize, and result a low penetration rate.
When adding an enhancer, it might improve the penetration rate. […] When increase the amount of the enhancer, it might not improve the penetration rate.
A co-solvent helps dissolving the drug in the adhesive but it might also help with the penetration rate.

Where [3] appears, read: galantamine with the antioxidant (label), 25′C.
Setting [4] is: galantamine with the antioxidant (label), 80′C-4 D.
Setting [5] is: galantamine with the antioxidant (label), 60′C-14 D.
The mark [6] stands for this setting: galantamine with the antioxidant (label), 80′C-1 D.

Regarding vitamin E, the “Total Impurity Amount %” value was 0.84% and 0.69% in series [1]; 0.12% in series [1] (setting [3]); 1.77% in series [1] (setting [4]).
For the compound `O=S([O-])([O-])=S.[Na+].[Na+]` [Sodium Thiosulfate, sodium thiosulfate], the “Total Impurity Amount %” value in series [1] is 0.13% and 1.02% and 0.67% and 2.20%.
As for `CCOCCOCCO` [Transcutol P, diethylene glycol monoethyl ether], in series [2], the penetration rate entry is recorded as “improves the penetration rate”. Also, the “Enhancement Ratio” value amounted to 5 in series [2] (5 %) and 4 in series [2] (5 % w/w).
Consider `CCCCCCCC/C=C\CCCCCCCC(=O)O` [Oleic Acid, oleic acid], for which the “Enhancement Ratio” value in series [2] (3 % w/w) is reported as 1.
`O=[N+]([O-])C(Br)(CO)CO` [Bronopol, bronopol]: the “Total Impurity Amount %” value in series [1] (setting [3]) is recorded as 0.18%; in series [1] (setting [5]), 0.81%; in series [1] (setting [6]) it was 0.69%; in series [1] (setting [4]) it was 1.82%.
Take `OCC(O)CS` (stereo not shown) [Monothioglycerol, monothioglycerol]: the “Total Impurity Amount %” value in series [1] (setting [3]) stood at 0.16%; in series [1] (setting [5]), 1.09%; in series [1] (setting [6]), 0.51%; in series [1] (setting [4]), 1.49%.
Consider `CCCCCCCCCCCCCCCC(=O)OC[C@H](O)[C@H]1OC(=O)C(O)=C1O` [Ascorbyl Palmitate, ascorbyl palmitate], for which the “Total Impurity Amount %” value in series [1] (setting [3]) was 0.12%; in series [1] (setting [5]) it was 0.58%; in series [1] (setting [6]), 0.28%; in series [1] (setting [4]), 1.13%.
The matching figures for `Cc1cc(C(C)(C)C)c(O)c(C(C)(C)C)c1` [Butylated Hydroxytoluene (BHT), butylated hydroxytoluene]: 0.11%, 0.33%, 0.51% and 1.18%.
Turning to `O=S=O` [Sulfur Dioxide, sulfur dioxide], the “Total Impurity Amount %” value in series [1] (setting [3]) turned out to be 0.16%; in series [1] (setting [5]), 1.04%; in series [1] (setting [6]), 0.54%; in series [1] (setting [4]), 1.83%.
For the compound `O=S([O-])[O-].[Na+].[Na+]` [Sodium Sulfite, sodium sulfite], the “Total Impurity Amount %” value is 1.04% and 0.74% in series [1]; 0.14% in series [1] (setting [3]); 1.69% in series [1] (setting [4]).
Consider `CCCCCCCC/C=C\CCCCCCCC(=O)OCC` [Ethyl Oleate, ethyl oleate], for which the “Enhancement Ratio” value in series [2] (3 % w/w) is 2.
Regarding `CCCCCCCCCCCCCC(=O)OC(C)C` [IPM, isopropyl myristate], the “Enhancement Ratio” value came out at 2 in series [2] (3 % w/w) and 1 in series [2] (5 % w/w).
As to `O=S([O-])S(=O)(=O)[O-].[Na+].[Na+]` [Sodium metabisulfite, sodium metabisulfite], the “Total Impurity Amount %” value in series [1] (setting [3]) was found to be 0.17%; in series [1] (setting [5]) it was 0.45%; in series [1] (setting [6]), 0.14%; in series [1] (setting [4]), 0.93%.
Turning to `O=C1O[C@H]([C@H](O)CO)C(O)=C1O` [Erythorbic Acid, erythorbic acid], the “Total Impurity Amount %” value in series [1] was 1.35% and 0.74%; in series [1] (setting [3]) it was 0.50%; in series [1] (setting [4]), 0.87%.
For the compound `CC(O)CO` (stereo not shown) [Propylene Glycol, propylene glycol], the “Enhancement Ratio” value in series [2] (5 % w/w) came out at 4; in series [2] (10 % w/w) it was 7.
